According to publication PMC5164911, “Comparative Analysis of the Interaction between Different Flavonoids and PDIA3” (Oxidative Medicine and Cellular Longevity, 2016):
pKd: −log10 of the molar value. Where two headings read alike, the source gives them in different places.

How the values were obtained:
PDIA3 [1] = molecular target: T1, PDIA3 (Homo sapiens, UniProt P30101); experiment: DNA binding activity by EMSA; format: biochemical; settings: flavonoid 0 to 50 μM
T1 construct: made in house; host or cells: E. coli BL21 (vector pET21)
T1 sequence (P30101 25-505): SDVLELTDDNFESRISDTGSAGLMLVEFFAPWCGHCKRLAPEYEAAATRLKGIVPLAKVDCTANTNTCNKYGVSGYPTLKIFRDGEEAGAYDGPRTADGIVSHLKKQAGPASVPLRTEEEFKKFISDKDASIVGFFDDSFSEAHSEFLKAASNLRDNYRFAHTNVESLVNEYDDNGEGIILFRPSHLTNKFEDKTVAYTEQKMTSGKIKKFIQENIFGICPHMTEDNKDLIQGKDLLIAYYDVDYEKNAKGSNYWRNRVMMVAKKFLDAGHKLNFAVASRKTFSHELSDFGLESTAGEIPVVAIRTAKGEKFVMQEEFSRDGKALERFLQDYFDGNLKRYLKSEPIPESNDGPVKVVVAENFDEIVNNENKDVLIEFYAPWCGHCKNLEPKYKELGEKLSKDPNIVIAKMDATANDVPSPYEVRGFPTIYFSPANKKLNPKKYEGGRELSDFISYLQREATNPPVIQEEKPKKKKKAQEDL
Procedure: EMSA assay was performed using a 79-bp […] obtained by PCR as previously described. Amplified DNA was end-labeled by using 5-fluorescein-modified primers. 10 ng of DNA fragment was incubated with 1 μg of PDIA3 or a′ domain, in presence of increasing concentration of flavonoids (from 0 to 50 μM). Controls were performed using DNA alone and in the presence of each flavonoid. All tests were performed in 20 μl mixtures containing 20 mM Tris-HCl, pH 7.5, 50 mM NaCl, and 10% (v/v) glycerol. Samples were incubated for 1 hour at 25°C and then resolved on 5% polyacrylamide gels in 0,25% TBE buffer (22.5 mM Tris-borate, 5 mM EDTA, pH 8.3) at 150 V. Gel images were recorded using a ChemiDoc MP Imaging System (BioRad) equipped with an epi-blue excitation lamp and a 520 nm emission filter.

PDIA3 [2] = molecular target: T1, PDIA3; experiment: Disulfide reductase activity with DiE-GSSG fluorogenic probe; format: biochemical; settings: DiE-GSSG substrate; for Inhibition of disulfide reductase (redox) activity: 20 μM flavonoid (Figure 7)
Procedure: Disulfide reductase activity of ERp57 was monitored by sensitive fluorescent assay using dieosin glutathione disulfide (DiE-GSSG) as fluorogenic probe. DiE-GSSG was synthesized by the reaction of eosin isothiocyanate with oxidized glutathione (GSSG) according to the method of Raturi and Mutus with some modifications. DiE-GSSG concentration was determined spectrophotometrically (ℇ 525 = 88,000 M^-1 cm^−1). Disulfide reductase activity was assayed in a reaction buffer containing 2 mM EDTA, 150 nM DiE-GSSG, and 5 μM DTT in PBS. A 20 μl aliquot of a stock solution of PDIA3 (1 μM) was added to the reaction mixture and DiE-GSSG reduction was monitored at 545 nm with excitation at 520 nm, at 25°C with continuous stirring. Reductase activity was calculated as the initial velocity in fluorescence increase. To test the effect of flavonoids on PDIA3 activity, the protein stock solution was previously incubated for 15 minutes at room temperature with different concentrations of each flavonoid and then a 20 μl aliquot subjected to assay in a reaction buffer containing the same concentration of the flavonoid.
Fluorescence quenching constant (K SV) values were given as means ± standard deviation and values of disulfide reductase activity were expressed in % of control sample ± relative standard deviation. All measurements were performed at least three times. Dunnett's test was used to compare the obtained reductase activity data with the activity of the untreated protein and a p value of <0.01 was considered as statistically significant.

PDIA3 [3] = molecular target: T1, PDIA3; experiment: Fluorescence quenching titration of PDIA3 intrinsic fluorescence; format: binding
Procedure: Quantitative analysis of the interaction between individual flavonoids and PDIA3 was performed by fluorimetric titration. […] Briefly, solution of PDIA3 (0.5 μM) or a and a′ domains (1 μM) in phosphate buffered saline (PBS) containing DTT 0.1 mM and EDTA 0.2 mM were titrated in quartz cuvette by stepwise additions, at 5 min time intervals, of individual flavonoid solution (1 mM in PBS/ethanol 50 : 50 v/v freshly prepared from a 20 mM stock solution in DMSO). […] To minimize the inner-filter effect we limited the highest concentration reached in the titration test up to 10 μM. All experiments were carried out at 25°C. Each spectrum was the mean of three repeated scans. Fluorescence spectra of appropriate blanks (flavonoids without proteins) were recorded under the same experimental conditions and subtracted from the corresponding flavonoid-protein system to correct the fluorescence background.
Quenching analysis was performed on PDIA3 (0.5 μM), in the reduced form, by adding stepwise increasing concentration of each molecule and recording the protein fluorescence spectra. For some flavonoids the analysis was extended to isolate a′ domain (1 μM), always in the reduced form. […] For each ligand molecule the Stern-Volmer quenching constant was obtained by linear regression of plots of F 0/F versus [L].
The Stern-Volmer quenching constant may be expressed as K SV = K q τ 0, where K q is the quencher rate coefficient and τ 0 is the average lifetime of the emissive excited state of the protein in the absence of the quencher.
The number of binding sites (n) and the binding constant (K b) were obtained by plotting log((F 0 − F)/F) versus log(1/([L t] − n(F 0 − F)[P t]/F 0)) using the reiterative calculation process described by Sun et al., assuming a similar affinity for each binding site.

PDIA3 [4] = molecular target: T1, PDIA3; experiment: Differential scanning fluorimetry (thermal stability, SYPRO Orange); format: binding; settings: 50 μM flavonoid, reduced PDIA3 1 μM
Procedure: Protein stability was tested by the fluorescence-based thermal stability assay or differential scanning fluorimetry (DSF) developed by Pantoliano and coworkers. DSF records the fluorescence emission signal from the binding of a dye (SYPRO orange) to the exposed hydrophobic patches upon protein unfolding. Fluorescence measurements were performed using a CFX96 Connect RT-PCR instrument (BioRad). 18 μl aliquots of protein solution (1 μM), freshly diluted in Tris Buffered saline (50 mM TrisHCl, pH 8.0, 150 mM NaCl) containing 0.1 mM DTT, 0.2 mM EDTA, and 1 : 1000 dilution of SYPRO Orange (50 mM stock solution in DMSO), were distributed in a 96-well plate. Sample wells were addition of increasing concentration (up to 50 μM) of individual flavonoid by adding 2 μl of 10-fold concentrated stock solutions freshly prepared. As control, the protein solution was added with 2 μl of the dilution buffer. A melting point analysis was recorded increasing the temperature from 20 to 95°C with an increment of 0.5°C and reading, at each temperature, the fluorescence in fluorescence resonance energy transfer mode (FRET). Each measure was the average of three sample wells reading and each DSF experiment was repeated at least three times. To calculate T m values, DSF data from the melting curve were exported and fitted to Boltzman equation using GraphPad software. Effect of flavonoids was evaluated comparing the T m values in presence and absence of each molecule.

PDIA3 [5] = molecular target: T1, PDIA3; set-up: method as in Trnková et al. [30]; settings: Figure 8, unit inferred; ref Trnková et al. [30]; read-out: Dissociation constant (Kd); cited from earlier work
PDIA3 [6] = molecular target: T1, PDIA3; settings: cited from earlier work
PDIA3 [7] = molecular target: T1, PDIA3; settings: cited from earlier work; remark: listed apart in the source
PDIA3 [8] = molecular target: PDIA3; set-up: method as in PMID 24530445; settings: cited from earlier work

O=c1c(O)c(-c2ccc(O)c(O)c2)oc2cc(O)cc(O)c12 [Quercetin, quercetin]
Effect on DNA binding activity of PDIA3 (PDIA3 [1]): None | Inhibition of disulfide reductase (redox) activity (PDIA3 [2]): 18% | Inhibition of disulfide reductase (redox) activity (PDIA3 [2]; listed as quercetin): approximately 20% | Effect on disulfide reductase activity (in words) (PDIA3 [2]): some inhibitory effect | Stern-Volmer constant (K SV) (PDIA3 [3]; 0.5∗10^−6 M PDIA3 in reduced conditions, pH 7.4, 25°C, flavonoid 0 to 10∗10^−6 M, mean and standard deviation): 46226 ± 1406 M⁻¹ | pKd (PDIA3 [3]; Figure 8, no unit printed in the picture, read-out: Dissociation constant (Kd)): 4.59 | bimolecular quenching rate constant (K q) (PDIA3 [3]; K SV = K q τ0 with τ0 of the order of 10^−8 s, reduced PDIA3, pH 7.4, 25°C): 4.62e+12 M⁻¹ s⁻¹ | pKd (PDIA3 [3]; K d = 1/K b, reduced PDIA3, pH 7.4, 25°C, read-out: dissociation constant (K d)): 4.59 | binding constant (K b) (PDIA3 [3]; equation of Bi et al., reiterative calculation of Sun et al., reduced PDIA3, pH 7.4, 25°C): 39000 M⁻¹ | Increase in melting temperature (T m) of PDIA3 (PDIA3 [4]): increased more than three degrees

O=C(OC1Cc2c(O)cc(O)cc2OC1c1cc(O)c(O)c(O)c1)c1cc(O)c(O)c(O)c1 (stereo not shown) [Epigallocatechin gallate, epigallocatechin gallate]
pKd (PDIA3 [5]): 4.34 | Inhibition of redox activity (%) (PDIA3 [6]; Figure 8, ref Trnková et al. [30]): 21% | Effect on DNA binding (PDIA3 [7]; ref Trnková et al. [30]): Inhibition

COc1cc(C2Oc3cc([C@H]4Oc5cc(O)cc(O)c5C(=O)[C@@H]4O)ccc3OC2CO)ccc1O (stereo partly shown) [silibinin]
Effect on redox activity of PDIA3 (PDIA3 [6]): no effect | Effect on DNA binding capability of PDIA3 (PDIA3 [7]): no effect | dissociation constant (PDIA3 [8]): within micromolar range
